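Step 1: Grow cells in 96-well plates. Step 2: Expose to compound for 48 hours at 5 concentrations. Step 3: Interpolate endpoints linearly; if unreached, use highest concentration. GI50: concentration for 50% inhibition of growth.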 Activity calls are given as the source filed them. Rule as the data show it: active = GI50 up to about 1.1 µM and inactive = higher.
Legend:
Test in all cases: DTP human tumour cell line panel, 48 h
[1] = tested on: EKVX
[2] = tested on: TK-10
[3] = tested on: M14
[4] = tested on: NCI-H460
[5] = tested on: RPMI-8226
[6] = tested on: ACHN
[7] = tested on: A549
[8] = tested on: U-251
[9] = tested on: NCI/ADR-RES
[10] = tested on: HT-29
[11] = tested on: SK-MEL-5
[12] = tested on: UACC-62
[13] = tested on: UO-31
[14] = tested on: OVCAR-4
[15] = tested on: SF-268
[16] = tested on: HCT-15
[17] = tested on: RXF 393
[18] = tested on: MDA-MB-435
[19] = tested on: MDA-MB-231
[20] = tested on: T47D

Row | SMILES | GI50 [1] | GI50 [2] | GI50 [3] | GI50 [4] | GI50 [5] | GI50 [6] | GI50 [7] | GI50 [8] | GI50 [9] | GI50 [10] | GI50 [11] | GI50 [12] | GI50 [13] | GI50 [14] | GI50 [15] | GI50 [16] | GI50 [17] | GI50 [18] | GI50 [19] | GI50 [20]
1 | Cn1ccnc1Sc1ccc(/C=N\NC(=O)c2cccc(F)c2)cc1[N+](=O)[O-] | 45.1 µM (inactive) | > 100 µM (inactive) | > 100 µM (inactive) | > 100 µM (inactive) | > 100 µM (inactive) | > 100 µM (inactive) | 69.3 µM (inactive) | 21.1 µM (inactive) | 79.3 µM (inactive) | > 100 µM (inactive) | 56.4 µM (inactive) | 89.1 µM (inactive) | > 100 µM (inactive) | 25.3 µM (inactive) | 24 µM (inactive) | 78.7 µM | 34.8 µM (inactive) | 61.1 µM (inactive) | 80.2 µM (inactive) | 36.1 µM (inactive)
2 | COC(=O)CCSC1=CC(=O)c2nc3ccccc3c3ccnc1c23 | 18.9 µM (inactive) | 14.2 µM (inactive) | 21.9 µM (inactive) | 16.1 µM (inactive) | 23.6 µM (inactive) | 19.4 µM (inactive) | > 93.1 µM (inactive) | 32.4 µM (inactive) | 15.3 µM (inactive) | 18 µM (inactive) | 18.8 µM (inactive) | 8.09 µM (inactive) | 15.3 µM (inactive) | 19.8 µM (inactive) | 15.1 µM (inactive) | 13.6 µM | 20.3 µM (inactive) | 7.4 µM (inactive) | 27.5 µM (inactive) | 18.7 µM (inactive)
3 | COC(=O)[C@H]1CO[C@H]2C/C(C)=C/CC/C(C)=C/CC[C@@]3(C)O[C@@H]3C[C@H]21 | 19.5 µM (inactive) | 20 µM (inactive) | 16.3 µM (inactive) | 9.73 µM (inactive) | 14.1 µM (inactive) | 17.5 µM (inactive) | 16.3 µM (inactive) | 18.6 µM (inactive) | 10.7 µM (inactive) | 17.9 µM (inactive) | 8.2 µM (inactive) | 8.87 µM (inactive) | 13.4 µM (inactive) | 9.48 µM (inactive) | 19.6 µM (inactive) | 9.12 µM | 12.9 µM (inactive) | 11.5 µM (inactive) | 10.8 µM (inactive) | 20.5 µM (inactive)
4 | CCNC(=O)OCC1C2=C(C(=O)C(C)=C(N)C2=O)N2CC3C(N3C)C12OC (stereo not given) | > 94.2 µM (inactive) | 60.1 µM (inactive) | 9.86 µM (inactive) | 0.18 µM (active) | 14.4 µM (inactive) | 4.22 µM (inactive) | 5.11 µM (inactive) | 23.8 µM (inactive) | > 75.5 µM (inactive) | 18.5 µM (inactive) | 12.8 µM (inactive) | 11.9 µM (inactive) | 19.5 µM (inactive) | 26.6 µM (inactive) | 15.7 µM (inactive) | 14.6 µM | 32.5 µM (inactive) | 75.7 µM (inactive) | > 100 µM (inactive) | 55.2 µM (inactive)
5 | OCc1ccc2c(c1)CC1(C2)Cc2cc3c(cc2C1O)CCC3 (stereo not given) | 10.1 µM (inactive) | 21.9 µM (inactive) | 3.4 µM (inactive) | 3.28 µM (inactive) | 3.18 µM (inactive) | 6.67 µM (inactive) | 6.43 µM (inactive) | 3.3 µM (inactive) | 2.58 µM (inactive) | 3.27 µM (inactive) | 3.04 µM (inactive) | 3.72 µM (inactive) | 5.9 µM (inactive) | 10.4 µM (inactive) | 10.9 µM (inactive) | 3.36 µM | 2.77 µM (inactive) | 0.65 µM (active) | 2.65 µM (inactive) | 1.36 µM (inactive)
6 | COc1cccc(-c2cc(O)c3c(C)cc(C)nc3n2)c1 | 3.85 µM (inactive) | 40.8 µM (inactive) | 0.406 µM (active) | 0.455 µM (active) | 0.345 µM (active) | 0.555 µM (active) | 0.78 µM (active) | 0.526 µM (active) | 1.13 µM (inactive) | 0.34 µM (active) | 0.301 µM (active) | 0.448 µM (active) | 0.867 µM (active) | 4.09 µM (inactive) | 0.578 µM (active) | 0.399 µM | 1.29 µM (inactive) | 0.0512 µM (active) | 1.6 µM (inactive) | 14.5 µM (inactive)
7 | COc1cc(OCCN(C)C)c2[nH]c(C(=O)N3CC(CCl)c4c3cc(N)c3ccccc43)cc2c1 (stereo not given) | < 0.01 µM (active) | < 0.01 µM (active) | < 0.01 µM (active) | < 0.01 µM (active) | < 0.01 µM (active) | < 0.01 µM (active) | < 0.01 µM (active) | < 0.01 µM (active) | < 0.01 µM (active) | < 0.01 µM (active) | < 0.01 µM (active) | < 0.01 µM (active) | < 0.01 µM (active) | < 0.018 µM (active) | < 0.01 µM (active) | < 0.01 µM | < 0.01 µM (active) | < 0.01 µM (active) | < 0.01 µM (active) | 0.0139 µM (active)
8 | CCCOc1cc2c(cc1O)CC[C@@H]1[C@@H]2CC[C@]2(C)[C@@H](O)CC[C@@H]12 | 6.27 µM (inactive) | 7.5 µM (inactive) | 1.8 µM (inactive) | 1.62 µM (inactive) | 1.83 µM (inactive) | 5.2 µM (inactive) | 2.99 µM (inactive) | 1.87 µM (inactive) | 1.17 µM (inactive) | 7.57 µM (inactive) | 2.12 µM (inactive) | 1.2 µM (inactive) | 4.95 µM (inactive) | 15.1 µM (inactive) | 6.3 µM (inactive) | 0.687 µM | 2.25 µM (inactive) | 0.284 µM (active) | 5.56 µM (inactive) | 3.19 µM (inactive)
9 | COc1ccc2c(c1O)C13CCN(C)C(C2)C1CCC1(C3)OCCO1 (stereo not given) | > 100 µM (inactive) | > 100 µM (inactive) | > 100 µM (inactive) | > 100 µM (inactive) | > 100 µM (inactive) | > 100 µM (inactive) | > 100 µM (inactive) | > 100 µM (inactive) | > 100 µM (inactive) | > 100 µM (inactive) | > 100 µM (inactive) | > 100 µM (inactive) | > 100 µM (inactive) | > 100 µM (inactive) | > 100 µM (inactive) | > 100 µM | > 100 µM (inactive) | > 100 µM (inactive) | > 100 µM (inactive) | > 100 µM (inactive)
10 | c1cncc(CNc2ncn[nH]2)c1 | > 100 µM (inactive) | > 100 µM (inactive) | > 100 µM (inactive) | > 100 µM (inactive) | > 100 µM (inactive) | > 100 µM (inactive) | > 100 µM (inactive) | > 100 µM (inactive) | > 100 µM (inactive) | > 100 µM (inactive) | > 100 µM (inactive) | > 100 µM (inactive) | > 100 µM (inactive) | > 100 µM (inactive) | > 100 µM (inactive) | > 100 µM | > 100 µM (inactive) | > 100 µM (inactive) | > 100 µM (inactive) | > 100 µM (inactive)
11 | N=C(Cc1ccccc1)NCC(=O)O | > 100 µM (inactive) | > 100 µM (inactive) | > 100 µM (inactive) | > 100 µM (inactive) | > 100 µM (inactive) | > 100 µM (inactive) | > 100 µM (inactive) | > 100 µM (inactive) | > 100 µM (inactive) | > 100 µM (inactive) | > 100 µM (inactive) | > 100 µM (inactive) | > 100 µM (inactive) | > 100 µM (inactive) | > 100 µM (inactive) | > 100 µM | > 100 µM (inactive) | > 100 µM (inactive) | > 100 µM (inactive) | > 100 µM (inactive)
12 | CNC(=O)OCc1c2ccncc2c(C)c2c1[nH]c1ccccc12 | 0.372 µM (active) | 0.237 µM (active) | 1.18 µM (inactive) | 0.167 µM (active) | 0.134 µM (active) | 0.0841 µM (active) | 0.251 µM (active) | 0.223 µM (active) | 0.24 µM (active) | 0.215 µM (active) | 0.242 µM (active) | 0.238 µM (active) | 0.231 µM (active) | 0.271 µM (active) | 0.272 µM (active) | 0.234 µM | < 0.0385 µM (active) | 0.421 µM (active) | 0.48 µM (active) | 0.331 µM (active)
13 | Cc1sc2nc(N(C)C)oc(=O)c2c1C | 59.6 µM (inactive) | > 100 µM (inactive) | > 100 µM (inactive) | > 100 µM (inactive) | 41.3 µM (inactive) | 79.8 µM (inactive) | 85.9 µM (inactive) | > 100 µM (inactive) | 70 µM (inactive) | > 100 µM (inactive) | 72.4 µM (inactive) | > 100 µM (inactive) | 21.6 µM (inactive) | > 100 µM (inactive) | 7.01 µM (inactive) | 82.6 µM | 25 µM (inactive) | > 100 µM (inactive) | > 100 µM (inactive) | 58.7 µM (inactive)
14 | Oc1ccc2ccccc2c1/C=N/Cc1c(O)ccc2ccccc12 | 7.71 µM (inactive) | 70.5 µM (inactive) | 44.5 µM (inactive) | 28.1 µM (inactive) | 12.6 µM (inactive) | 28.4 µM (inactive) | 86.7 µM (inactive) | 29 µM (inactive) | 33.8 µM (inactive) | > 100 µM (inactive) | 71.9 µM (inactive) | 45.1 µM (inactive) | 28.7 µM (inactive) | > 100 µM (inactive) | 37.2 µM (inactive) | 29.4 µM | 1.39 µM (inactive) | 77.6 µM (inactive) | 82.4 µM (inactive) | 19.1 µM (inactive)

From ChEMBL document CHEMBL1201862, “PubChem BioAssay data set” (2004)
